Measurements: patent US10501552B2, “Multivalent molecules comprising DR5-binding domains” (MacroGenics, Inc., priority 2015, dated 2019)
Blank lines part the entries; values can stand above or below the substance they belong to.

Experiments:
[1] = molecular target: histidine tagged TRAIL (Homo sapiens, UniProt P50591); assay: binding to TRAIL-His coat; conditions: 2 μg/mL biotinylated; 1 μg/mL TRAIL-His coat
Method: The amount of immobilized biotinylated antibody was assessed.

[2] = molecular target: cynomolgus monkey DR5 (His-tagged); assay: Biacore analysis of binding kinetics; design: ka / kd: unit not given here; conditions: tested as DR5×CD3 mAb 2 diabody
Method: Bispecific DR5×CD3 diabodies were incubated with His-tagged DR5 and the kinetics of binding was determined via Biacore analysis. […] FIG. 6, Panels A-D show the results for human DR5. FIG. 6, Panels E-H show the results for cynomolgus monkey DR5.

[3] = system: engrafted breast cancer cells; conditions: cited from earlier work
[4] = system: astrocytoma and leukemia cells; conditions: cited from earlier work
[5] = system: PC3; assay: […]-GLO cell viability assay with vorinostat; assay type: cell-based; conditions: PC3 (Prostate); 1 μg/ml + 1 μM Vorinostat
[6] = system: SKOV3; assay: […]-GLO cell viability assay with vorinostat; assay type: cell-based; conditions: SKOV3 (Ovary); 1 μg/ml + 1 μM Vorinostat
[7] = system: ES2; assay: […]-GLO cell viability assay with vorinostat; assay type: cell-based; conditions: ES2 (Ovary); 1 μg/ml + 10 μM Vorinostat
[8] = system: MDA-MB-175VII; assay: […]-GLO cell viability assay with vorinostat; assay type: cell-based; conditions: MDA-MB-175VII (Breast); 1 μg/ml + 1 μM Vorinostat
[9] = system: MDA-MB-361; assay: […]-GLO cell viability assay with vorinostat; assay type: cell-based; conditions: MDA-MB-361 (Breast); 1 μg/ml + 10 μM Vorinostat
[10] = system: SKBR3; assay: […]-GLO cell viability assay with vorinostat; assay type: cell-based, human; conditions: SKBR3 (Breast); 1 μg/ml + 1 μM Vorinostat
[11] = system: Hs746T; assay: […]-GLO cell viability assay with vorinostat; assay type: cell-based; conditions: Hs746T (Stomach); 1 μg/ml + 10 μM Vorinostat
[12] = system: 786O; assay: […]-GLO cell viability assay with vorinostat; assay type: cell-based; conditions: 786O (Kidney); 1 μg/ml + 1 μM Vorinostat
[13] = system: DU145; assay: […]-GLO cell viability assay with vorinostat; assay type: cell-based, human; conditions: DU145 (Prostate); 1 μg/ml + 10 μM Vorinostat
[14] = system: HPAFII; assay: […]-GLO cell viability assay with vorinostat; assay type: cell-based; conditions: HPAFII (Pancreas); 1 μg/ml + 10 μM Vorinostat
[15] = system: Calu3; assay: […]-GLO cell viability assay with vorinostat; assay type: cell-based; conditions: Calu3 (Lung); 1 μg/ml + 1 μM Vorinostat
[16] = system: NCI-N87; assay: […]-GLO cell viability assay with vorinostat; assay type: cell-based; conditions: NCI-N87 (Stomach); 1 μg/ml + 1 μM Vorinostat
[17] = system: BT474; assay: […]-GLO cell viability assay with vorinostat; assay type: cell-based; conditions: BT474 (Breast); 1 μg/ml + 10 μM Vorinostat
[18] = system: Hs700T; assay: […]-GLO cell viability assay with vorinostat; assay type: cell-based; conditions: Hs700T (Pancreas); 1 μg/ml + 1 μM Vorinostat
[19] = system: A549; assay: […]-GLO cell viability assay with vorinostat; assay type: cell-based, human; conditions: A549 (Lung); 1 μg/ml + 10 μM Vorinostat
[20] = system: COLO205; assay: […]-GLO cell viability assay with vorinostat; assay type: cell-based; conditions: for Average % Ctrl: one day
Method: For the first study COLO205 cells were plated at 2×10^4 cells/well (in 96-well plates), and incubated overnight in F12/DMEM media supplemented with 10% FBS. […] Cell viability was determined using Promega […]-GLO® Luminescent Cell Viability Assay (Cat # G5430) essentially as described in the manufacturer's instructions to assay the amount of ATP present, which is a measure of the number of viable cells in the culture. Briefly, an […]-GLO® Reagent was added to the wells and mixed for two minutes to induce lysis and the luminescence was read in a in PerkinElmer EnVision multilabel plate reader.
Cell viability of cells treated with the test articles is normalized to the corresponding negative control (medium±vorinostat) which is set to 100% and reported in Table 12 as % of control for each test agent alone or % control for each test agent in combination with vorinostat. % of control values less than 100% indicate a reduction in viability and reflect the cytotoxicity of the test article alone or in combination with vorinostat.
The Net Gain (Average % Growth Inhibition)=% Medium Ctrl (10% FBS)−% Medium Ctrl (1/10 μM vorinostat), and represents increased cytotoxicity of the test article in combination with vorinostat over cells treated with vorinostat alone.

[21] = system: MCF7; assay: […]-GLO cell viability assay with vorinostat; assay type: cell-based; conditions: MCF7 (Breast); 1 μg/ml + 10 μM Vorinostat
[22] = system: LNCap; assay: […]-GLO cell viability assay with vorinostat; assay type: cell-based, human; conditions: LNCap (Prostate); 1 μg/ml + 10 μM Vorinostat
[23] = system: AsPC1; assay: […]-GLO cell viability assay with vorinostat; assay type: cell-based; conditions: AsPC1 (Pancreas); 1 μg/ml + 1 μM Vorinostat
[24] = system: 22RV1; assay: […]-GLO cell viability assay with vorinostat; assay type: cell-based; conditions: 22RV1 (Prostate); 1 μg/ml + 10 μM Vorinostat
[25] = cited from earlier work
[26] = a few patients; higher doses (20 mg per kg); cited from earlier work

Chain of histidine tagged TRAIL (P50591 114-281 limits assumed): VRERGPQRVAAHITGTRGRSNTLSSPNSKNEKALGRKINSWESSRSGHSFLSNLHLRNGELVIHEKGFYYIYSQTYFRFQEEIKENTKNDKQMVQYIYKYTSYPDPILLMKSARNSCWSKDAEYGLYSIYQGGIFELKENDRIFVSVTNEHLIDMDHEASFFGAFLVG

amount of immobilized biotinylated antibody [1]: 0.288
Substance: DR5-Fc fusion: human DR5-Fc fusion protein, biotinylated, tested on TRAIL-His coat [reference compound]

Kd [2]: 0.0164 µM
ka [2]: 2.5 × 10^6
kd [2]: 4.1 × 10^−2
Substance: DR5 mAb 4: conatumumab, known anti-human DR5 antibody; VL SEQ ID NO:62, VH SEQ ID NO:66

Substance: TRA-8/CS-1008: humanized anti-DR5 antibody (Daiichi Sankyo)
antitumor activity in vivo [3]: high antitumor activity
antitumor activity in vitro [4]: high antitumor activity

Substance: R&D TRAIL/His: His-tagged TRAIL (R&D systems) used as a positive control [reference compound]
Net Gain (Average % Growth Inhibition) [5]: 12.49%
Net Gain (Average % Growth Inhibition) [6]: 33.93%
Net Gain (Average % Growth Inhibition) [7]: 79.12%
Net Gain (Average % Growth Inhibition) [8]: 24.17%
Net Gain (Average % Growth Inhibition) [9]: 64.85%
Net Gain (Average % Growth Inhibition) [10]: 43.10%
Net Gain (Average % Growth Inhibition) [11]: 31.81%
Net Gain (Average % Growth Inhibition) [12]: 31.16%
Net Gain (Average % Growth Inhibition) [13]: 4.57%
Net Gain (Average % Growth Inhibition) [14]: 46.71%
Net Gain (Average % Growth Inhibition) [15]: 9.96%
Net Gain (Average % Growth Inhibition) [16]: 35.97%
Net Gain (Average % Growth Inhibition) [17]: 50.24%
Net Gain (Average % Growth Inhibition) [18]: 15.83%
Net Gain (Average % Growth Inhibition) [19]: 26.71%
Average % Ctrl ([20]; Vorinostat 0 μM, % Medium Ctrl (10% FBS), 10 ng/ml tetravalent molecule or 1 μg/ml DR5 mAb): 68.7%
Net Gain (Average % Growth Inhibition) ([20]; Vorinostat 0.1 μM): 15%
Average % Ctrl ([20]; Vorinostat 0.1 μM, normalized to medium + vorinostat): 54.1%
Net Gain (Average % Growth Inhibition) ([20]; Vorinostat 1 μM): 24%
Average % Ctrl ([20]; Vorinostat 1 μM, normalized to medium + vorinostat): 44.8%
Net Gain (Average % Growth Inhibition) [21]: 0.79%
Net Gain (Average % Growth Inhibition) [22]: 28.73%
Net Gain (Average % Growth Inhibition) [23]: 11.86%
Net Gain (Average % Growth Inhibition) [24]: 8.91%

Kd [2]: 0.0133 µM
ka [2]: 3.3 × 10^6
kd [2]: 4.4 × 10^−2
Substance: DR5 mAb 3: drozitumab, known anti-human DR5 antibody; VL SEQ ID NO:54, VH SEQ ID NO:58

Substance: soluble TRAIL: soluble TRAIL preparations
in vivo half-life [25]: approximately 30 minutes

Substance: lexatumummab: anti-DR5 agonist antibody from Human Genome Sciences
hepatotoxicity [26]: Hepatotoxicity with increased serum alanine aminotransferase, aspartate aminotransferase and bilirubin
